Columns and labels:
[1] = NEF-105 study: budesonide plasma pharmacokinetics; assay type: in vivo; conditions: human, po
[2] = tested on: patients with IgAN; conditions: TESTING trial, at 3 months, diminishing over time; cited from earlier work

Row | half-life [1] [min] | Compound | Effect on proteinuria vs placebo [2]
1 | ~300 | CCCC1O[C@@H]2C[C@H]3[C@@H]4CCC5=CC(=O)C=C[C@]5(C)[C@H]4[C@@H](O)C[C@]3(C)[C@]2(C(=O)CO)O1 (some centres unmarked) [budesonide] | 
2 |  | C[C@H]1C[C@@H]2[C@H]([C@@H](O)C[C@@]3(C)[C@H]2CC[C@]3(O)C(=O)CO)[C@@]2(C)C=CC(=O)C=C12 [methylprednisolone] | substantial effect

Reference: paper PMC11298173 (Drug Design, Development and Therapy, 2024)
